Assay results as given in ChEMBL document CHEMBL2440076, “New triarylpyrazoles as broad-spectrum anticancer agents: design, synthesis, and biological evaluation” (Eur J Med Chem, 2013).

How the values were obtained:
Type in all cases: functional
SF-268 = assay: Growth inhibition of human SF268 cells assessed as cell growth at 5X10'-9 M after 48 hrs by sulforhodamine B assay; conditions: SF-268, 48 h, read-out: Activity
KM12 [1] = assay: Growth inhibition of human KM12 cells assessed as cell growth at 5X10'-5 M after 48 hrs by sulforhodamine B assay; conditions: KM12, 48 h, read-out: Activity
HCT-116 = assay: Growth inhibition of human HCT116 cells assessed as cell growth at 5X10'-5 M after 48 hrs by sulforhodamine B assay; conditions: HCT-116, 48 h, read-out: Activity
NCI-H23 = assay: Growth inhibition of human NCI-H23 cells assessed as cell growth at 5X10'-5 M after 48 hrs by sulforhodamine B assay; conditions: NCI-H23, 48 h, read-out: Activity
MDA-MB-468 = assay: Growth inhibition of human MDA-MB-468 cells assessed as cell growth at 5X10'-6 M after 48 hrs by sulforhodamine B assay; conditions: MDA-MB-468, 48 h, read-out: Activity
PC-3 = assay: Growth inhibition of human PC3 cells assessed as cell growth at 5X10'-6 M after 48 hrs by sulforhodamine B assay; conditions: PC-3, 48 h, read-out: Activity
ACHN [2] = assay: Growth inhibition of human ACHN cells assessed as cell growth at 5X10'-6 M after 48 hrs by sulforhodamine B assay; conditions: read-out: Activity
MDA-MB-435 = assay: Growth inhibition of human MDA-MB-435 cells assessed as cell growth at 5X10'-6 M after 48 hrs by sulforhodamine B assay; conditions: MDA-MB-435, 48 h, read-out: Activity
NCI-H322M [3] = assay: Growth inhibition of human NCI-H322M cells assessed as cell growth at 5X10'-9 M after 48 hrs by sulforhodamine B assay; conditions: read-out: Activity
NCI-H522 = assay: Growth inhibition of human NCI-H522 cells assessed as cell growth at 5X10'-6 M after 48 hrs by sulforhodamine B assay; conditions: NCI-H522, 48 h, read-out: Activity
HOP-92 = assay: Growth inhibition of human HOP92 cells assessed as cell growth at 5X10'-6 M after 48 hrs by sulforhodamine B assay; conditions: HOP-92, 48 h, read-out: Activity
RXF 393 = assay: Growth inhibition of human RXF393 cells assessed as cell growth at 5X10'-7 M after 48 hrs by sulforhodamine B assay; conditions: RXF 393, 48 h, read-out: Activity
A498 [4] = assay: Growth inhibition of human A498 cells assessed as cell growth at 5X10'-7 M after 48 hrs by sulforhodamine B assay; conditions: A498, 48 h, read-out: Activity
M14 = assay: Growth inhibition of human M14 cells assessed as cell growth at 5X10'-7 M after 48 hrs by sulforhodamine B assay; conditions: M14, 48 h, read-out: Activity
Malme-3M = assay: Growth inhibition of human MALME-3M cells assessed as cell growth at 5X10'-7 M after 48 hrs by sulforhodamine B assay; conditions: read-out: Activity
HT-29 = assay: Growth inhibition of human HT-29 cells assessed as cell growth at 5X10'-7 M after 48 hrs by sulforhodamine B assay; conditions: HT-29, 48 h, read-out: Activity
NCI-H460 = assay: Growth inhibition of human NCI-H460 cells assessed as cell growth at 5X10'-7 M after 48 hrs by sulforhodamine B assay; conditions: NCI-H460, 48 h, read-out: Activity
NCI-H322M [5] = assay: Growth inhibition of human NCI-H322M cells assessed as cell growth at 5X10'-7 M after 48 hrs by sulforhodamine B assay; conditions: read-out: Activity
SR = assay: Growth inhibition of human SR cells assessed as cell growth at 5X10'-7 M after 48 hrs by sulforhodamine B assay; conditions: read-out: Activity
CCRF-CEM = assay: Growth inhibition of human CCRF-CEM cells assessed as cell growth at 5X10'-7 M after 48 hrs by sulforhodamine B assay; conditions: read-out: Activity
MDA-MB-231 [6] = assay: Growth inhibition of human MDA-MB-231 cells assessed as cell growth at 5X10'-8 M after 48 hrs by sulforhodamine B assay; conditions: MDA-MB-231, 48 h, read-out: Activity
OVCAR-4 = assay: Growth inhibition of human OVCAR4 cells assessed as cell growth at 5X10'-8 M after 48 hrs by sulforhodamine B assay; conditions: OVCAR-4, 48 h, read-out: Activity
KM12 [7] = assay: Growth inhibition of human KM12 cells assessed as cell growth at 5X10'-8 M after 48 hrs by sulforhodamine B assay; conditions: KM12, 48 h, read-out: Activity
T47D = assay: Growth inhibition of human T47D cells assessed as cell growth at 5X10'-5 M after 48 hrs by sulforhodamine B assay; conditions: read-out: Activity
MDA-MB-231 [8] = assay: Growth inhibition of human MDA-MB-231 cells assessed as cell growth at 5X10'-5 M after 48 hrs by sulforhodamine B assay; conditions: MDA-MB-231, 48 h, read-out: Activity
DU-145 = assay: Growth inhibition of human DU145 cells assessed as cell growth at 5X10'-5 M after 48 hrs by sulforhodamine B assay; conditions: DU-145, 48 h, read-out: Activity
CAKI-1 [9] = assay: Growth inhibition of human CAKI-1 cells assessed as cell growth at 5X10'-5 M after 48 hrs by sulforhodamine B assay; conditions: CAKI-1, 48 h, read-out: Activity
ACHN [10] = assay: Growth inhibition of human ACHN cells assessed as cell growth at 5X10'-5 M after 48 hrs by sulforhodamine B assay; conditions: read-out: Activity
A498 [11] = assay: Growth inhibition of human A498 cells assessed as cell growth at 5X10'-5 M after 48 hrs by sulforhodamine B assay; conditions: A498, 48 h, read-out: Activity
786-0 = assay: Growth inhibition of human 786-0 cells assessed as cell growth at 5X10'-5 M after 48 hrs by sulforhodamine B assay; conditions: 786-0, 48 h, read-out: Activity
SK-MEL-5 = assay: Growth inhibition of human SK-MEL-5 cells assessed as cell growth at 5X10'-5 M after 48 hrs by sulforhodamine B assay; conditions: SK-MEL-5, 48 h, read-out: Activity
MDA-MB-231 [12] = assay: Growth inhibition of human MDA-MB-231 cells assessed as cell growth at 5X10'-9 M after 48 hrs by sulforhodamine B assay; conditions: MDA-MB-231, 48 h, read-out: Activity
UO-31 = assay: Growth inhibition of human UO31 cells assessed as cell growth at 5X10'-9 M after 48 hrs by sulforhodamine B assay; conditions: UO-31, 48 h, read-out: Activity
CAKI-1 [13] = assay: Growth inhibition of human CAKI-1 cells assessed as cell growth at 5X10'-9 M after 48 hrs by sulforhodamine B assay; conditions: CAKI-1, 48 h, read-out: Activity
UACC-62 = assay: Growth inhibition of human UACC62 cells assessed as cell growth at 5X10'-9 M after 48 hrs by sulforhodamine B assay; conditions: UACC-62, 48 h, read-out: Activity
SNB-75 = assay: Growth inhibition of human SNB75 cells assessed as cell growth at 5X10'-9 M after 48 hrs by sulforhodamine B assay; conditions: SNB-75, 48 h, read-out: Activity
SF-295 = assay: Growth inhibition of human SF295 cells assessed as cell growth at 5X10'-9 M after 48 hrs by sulforhodamine B assay; conditions: SF-295, 48 h, read-out: Activity

SMILES	growth at 0.005 µM (SF-268)	growth at 50 µM (KM12 [1])	growth at 50 µM (HCT-116)	growth at 50 µM (NCI-H23)	growth at 5 µM (MDA-MB-468)	growth at 5 µM (PC-3)	growth at 5 µM (ACHN [2])	growth at 5 µM (MDA-MB-435)	growth at 0.005 µM (NCI-H322M [3])	growth at 5 µM (NCI-H522)	growth at 5 µM (HOP-92)	growth at 0.5 µM (RXF 393)	growth at 0.5 µM (A498 [4])	growth at 0.5 µM (M14)	growth at 0.5 µM (Malme-3M)	growth at 0.5 µM (HT-29)	growth at 0.5 µM (NCI-H460)	growth at 0.5 µM (NCI-H322M [5])	growth at 0.5 µM (SR)	growth at 0.5 µM (CCRF-CEM)	further results
COc1cc(-c2nn(-c3cccc(NC(=O)Nc4cccc(C(F)(F)F)c4)c3)cc2-c2ccncc2)ccc1Cl	97%	-47%	-16%	-37%	-33%	-19%	-8%	-47%	89%	-30%	-45%	74%	73%	73%	94%	72%	64%	82%	75%	69%	growth at 0.05 µM (MDA-MB-231 [6]): 99%; growth at 0.05 µM (OVCAR-4): 96%; growth at 0.05 µM (KM12 [7]): 97%; growth at 50 µM (T47D): 1%; growth at 50 µM (MDA-MB-231 [8]): -56%; growth at 50 µM (DU-145): 1%; growth at 50 µM (CAKI-1 [9]): -21%; growth at 50 µM (ACHN [10]): -7%; growth at 50 µM (A498 [11]): -20%; growth at 50 µM (786-0): -22%; growth at 50 µM (SK-MEL-5): -97%; growth at 0.005 µM (MDA-MB-231 [12]): 103%; growth at 0.005 µM (UO-31): 88%; growth at 0.005 µM (CAKI-1 [13]): 94%; growth at 0.005 µM (UACC-62): 95%; growth at 0.005 µM (SNB-75): 92%; growth at 0.005 µM (SF-295): 96%
COc1cc(-c2nn(-c3cccc(NC(=O)Nc4cc(C(F)(F)F)cc(C(F)(F)F)c4)c3)cc2-c2ccncc2)ccc1Cl	100%	-68%	-67%	-59%	-42%	-20%	2%	-57%	97%	-48%	-52%	82%	59%	71%	83%	70%	55%	83%	80%	50%	growth at 0.05 µM (MDA-MB-231 [6]): 95%; growth at 0.05 µM (OVCAR-4): 92%; growth at 0.05 µM (KM12 [7]): 107%; growth at 50 µM (T47D): 5%; growth at 50 µM (MDA-MB-231 [8]): -85%; growth at 50 µM (DU-145): -80%; growth at 50 µM (CAKI-1 [9]): -50%; growth at 50 µM (ACHN [10]): -34%; growth at 50 µM (A498 [11]): -89%; growth at 50 µM (786-0): -63%; growth at 50 µM (SK-MEL-5): -93%; growth at 0.005 µM (MDA-MB-231 [12]): 101%; growth at 0.005 µM (UO-31): 90%; growth at 0.005 µM (CAKI-1 [13]): 95%; growth at 0.005 µM (UACC-62): 97%; growth at 0.005 µM (SNB-75): 94%; growth at 0.005 µM (SF-295): 90%
